Assay results taken from paper PMC5218480 (PLoS ONE, 2017).

Tested on: MV-4-11 cells
Assay: Gene expression microarray analysis (Affymetrix PrimeView) and GSEA
Type: cell-based, human
Parameters: RFU PODN (11730768_x_at) / Fold change /veh PODN (11730768_x_at) / RFU LINC00158 (11744669_a_at) / Fold change /veh LINC00158 (11744669_a_at) / RFU DUSP10 (11751237_a_at) / Fold change /veh DUSP10 (11751237_a_at) / RFU ID3 (11757404_x_at) / Fold change /veh ID3 (11757404_x_at) / RFU PLEKHG5 (11737974_s_at) / Fold change /veh PLEKHG5 (11737974_s_at) / RFU LRRC4B (11730491_at) / Fold change /veh LRRC4B (11730491_at) / RFU GIMAP4 (11747438_a_at) / Fold change /veh GIMAP4 (11747438_a_at) / RFU KRT8 (11758183_x_at) / Fold change /veh KRT8 (11758183_x_at) / RFU CNN1 (11734310_a_at) / Fold change /veh CNN1 (11734310_a_at) / RFU VPS37D (11726825_at) / Fold change /veh VPS37D (11726825_at) / RFU C10orf10 (11716522_x_at) / Fold change /veh C10orf10 (11716522_x_at) / RFU KIR2DL2 /// KIR2DL4 /// KIR2DL5A /// KIR2DL5B /// KIR2DS1 /// KIR2DS2 /// KIR2DS3 /// KIR2DS4 /// KIR3DL3 /// KIR3DL3 /// KIR3DS1 (11738374_at) / Fold change /veh KIR2DL2 /// KIR2DL4 /// KIR2DL5A /// KIR2DL5B /// KIR2DS1 /// KIR2DS2 /// KIR2DS3 /// KIR2DS4 /// KIR3DL3 /// KIR3DL3 /// KIR3DS1 (11738374_at) / RFU C1QL1 (11718748_at) / Fold change /veh C1QL1 (11718748_at) / RFU TMPRSS4 (11747572_a_at) / Fold change /veh TMPRSS4 (11747572_a_at) / RFU HAMP (11756126_x_at) / Fold change /veh HAMP (11756126_x_at) / RFU RNFT2 (11725882_a_at) / Fold change /veh RNFT2 (11725882_a_at) / RFU NR4A2 (11747474_a_at) / Fold change /veh NR4A2 (11747474_a_at) / RFU ABCC12 (11746883_a_at) / Fold change /veh ABCC12 (11746883_a_at) / RFU TMEM136 (11760407_x_at) / Fold change /veh TMEM136 (11760407_x_at) / RFU CLDN22 /// WWC2 (11732394_at) / Fold change /veh CLDN22 /// WWC2 (11732394_at) / RFU HLA-DPB1 (11760878_x_at) / Fold change /veh HLA-DPB1 (11760878_x_at) / RFU SPINT1 (11716480_a_at) / Fold change /veh SPINT1 (11716480_a_at) / RFU GAP43 (11754022_s_at) / Fold change /veh GAP43 (11754022_s_at) / RFU A4GNT (11735810_at) / Fold change /veh A4GNT (11735810_at) / RFU PRB3 (11715151_x_at) / Fold change /veh PRB3 (11715151_x_at) / RFU TUBB4B (11761932_at) / Fold change /veh TUBB4B (11761932_at) / RFU CAPN14 (11732068_a_at) / Fold change /veh CAPN14 (11732068_a_at) / RFU TMCC2 (11721928_a_at) / Fold change /veh TMCC2 (11721928_a_at) / RFU IRGQ (11745062_a_at) / Fold change /veh IRGQ (11745062_a_at) / RFU FAM174B (11720279_a_at) / Fold change /veh FAM174B (11720279_a_at) / RFU TMPRSS4 (11748680_a_at) / Fold change /veh TMPRSS4 (11748680_a_at) / RFU FAM212B (11763350_a_at) / Fold change /veh FAM212B (11763350_a_at) / RFU PLEKHG5 (11743358_a_at) / Fold change /veh PLEKHG5 (11743358_a_at) / RFU ZSCAN30 (11745921_a_at) / Fold change /veh ZSCAN30 (11745921_a_at) / RFU CMKLR1 (11741424_a_at) / Fold change /veh CMKLR1 (11741424_a_at) / RFU LOC101060620 /// MAPK8IP1 (11723275_at) / Fold change /veh LOC101060620 /// MAPK8IP1 (11723275_at) / RFU SPTSSB (11747773_x_at) / Fold change /veh SPTSSB (11747773_x_at) / RFU PRSS12 (11739890_at) / Fold change /veh PRSS12 (11739890_at) / RFU BIN1 (11741810_x_at) / Fold change /veh BIN1 (11741810_x_at) / RFU WNT11 (11732464_a_at) / Fold change /veh WNT11 (11732464_a_at) / RFU C10orf10 (11716521_a_at) / Fold change /veh C10orf10 (11716521_a_at) / RFU C5orf56 (11738089_at) / Fold change /veh C5orf56 (11738089_at) / RFU CYB561 (11721691_x_at) / Fold change /veh CYB561 (11721691_x_at) / RFU ANKRD19P (11752326_a_at) / Fold change /veh ANKRD19P (11752326_a_at) / RFU OR2T12 /// OR2T33 /// OR2T8 (11738714_s_at) / Fold change /veh OR2T12 /// OR2T33 /// OR2T8 (11738714_s_at) / RFU VCAN (11748164_a_at) / Fold change /veh VCAN (11748164_a_at) / RFU JSRP1 (11732532_at) / Fold change /veh JSRP1 (11732532_at) / RFU KRTAP10-11 (11738290_x_at) / Fold change /veh KRTAP10-11 (11738290_x_at) / RFU MYO3A (11730013_a_at) / Fold change /veh MYO3A (11730013_a_at) / RFU EBF3 (11725865_a_at) / Fold change /veh EBF3 (11725865_a_at) / RFU CAMK2N1 (11719241_x_at) / Fold change /veh CAMK2N1 (11719241_x_at) / RFU C5orf56 (11738088_a_at) / Fold change /veh C5orf56 (11738088_a_at) / RFU OLFML3 (11715873_a_at) / Fold change /veh OLFML3 (11715873_a_at) / RFU LOC100653217 /// NTM (11731650_a_at) / Fold change /veh LOC100653217 /// NTM (11731650_a_at) / RFU MAPK11 (11762145_a_at) / Fold change /veh MAPK11 (11762145_a_at) / RFU FIZ1 (11724087_x_at) / Fold change /veh FIZ1 (11724087_x_at) / RFU OASL (11726364_x_at) / Fold change /veh OASL (11726364_x_at) / RFU SOX15 (11748057_x_at) / Fold change /veh SOX15 (11748057_x_at) / RFU CD79A (11719716_a_at) / Fold change /veh CD79A (11719716_a_at) / RFU HIST1H1D (11736915_at) / Fold change /veh HIST1H1D (11736915_at) / RFU CASKIN2 (11723855_a_at) / Fold change /veh CASKIN2 (11723855_a_at) / RFU LOC730098 (11760151_x_at) / Fold change /veh LOC730098 (11760151_x_at) / RFU OR4N2 (11742367_at) / Fold change /veh OR4N2 (11742367_at) / RFU PRRT2 (11749266_a_at) / Fold change /veh PRRT2 (11749266_a_at) / RFU SNX32 (11753110_a_at) / Fold change /veh SNX32 (11753110_a_at) / RFU CDHR5 (11726645_a_at) / Fold change /veh CDHR5 (11726645_a_at) / RFU RCAN1 (11760418_a_at) / Fold change /veh RCAN1 (11760418_a_at) / RFU FAM167A (11723789_a_at) / Fold change /veh FAM167A (11723789_a_at) / RFU FAM26E (11764081_at) / Fold change /veh FAM26E (11764081_at) / RFU ISYNA1 (11749810_s_at) / Fold change /veh ISYNA1 (11749810_s_at) / RFU ACY1 (11761880_at) / Fold change /veh ACY1 (11761880_at) / RFU 11764098_at / Fold change /veh 11764098_at / RFU SAMD14 (11745864_x_at) / Fold change /veh SAMD14 (11745864_x_at) / RFU NPB (11741838_a_at) / Fold change /veh NPB (11741838_a_at) / RFU TMPRSS6 (11731388_a_at) / Fold change /veh TMPRSS6 (11731388_a_at) / RFU KRTAP10-2 (11738614_at) / Fold change /veh KRTAP10-2 (11738614_at) / RFU ARHGAP8 /// PRR5-ARHGAP8 (11727945_x_at) / Fold change /veh ARHGAP8 /// PRR5-ARHGAP8 (11727945_x_at) / RFU KRTAP5-7 /// NADSYN1 (11734609_at) / Fold change /veh KRTAP5-7 /// NADSYN1 (11734609_at) / RFU RASL12 (11751679_a_at) / Fold change /veh RASL12 (11751679_a_at) / RFU CDKN2B (11736163_a_at) / Fold change /veh CDKN2B (11736163_a_at) / RFU PRF1 (11729649_at) / Fold change /veh PRF1 (11729649_at) / RFU, ZNF638 /// ZNF638-IT1 / Fold change vs veh, ZNF638 /// ZNF638-IT1 / RFU, PANK3 / Fold change vs veh, PANK3 / RFU, SH3YL1 / Fold change vs veh, SH3YL1 / RFU, ZEB2 / Fold change vs veh, ZEB2 / RFU, NRIP1 / Fold change vs veh, NRIP1 / RFU, PTTG1IP / Fold change vs veh, PTTG1IP / RFU, CAPN2 / Fold change vs veh, CAPN2 / RFU, MED14 / Fold change vs veh, MED14 / RFU, SNORA58 / Fold change vs veh, SNORA58 / RFU, C1orf63 / Fold change vs veh, C1orf63 / RFU, LRRFIP1 / Fold change vs veh, LRRFIP1 / RFU, NDUFAF7 / Fold change vs veh, NDUFAF7 / RFU, SLC12A2 / Fold change vs veh, SLC12A2 / RFU, IBTK / Fold change vs veh, IBTK / RFU, ESF1 / Fold change vs veh, ESF1 / Fold change vs veh, TMEM50B / RFU, TAOK1 / Fold change vs veh, TAOK1 / RFU, ACBD3 / Fold change vs veh, ACBD3 / RFU, TMA16 / Fold change vs veh, TMA16 / RFU, RWDD3 / Fold change vs veh, RWDD3 / RFU, BCAT1 / Fold change vs veh, BCAT1 / RFU, EDEM3 / Fold change vs veh, EDEM3 / RFU, TMEM33 / Fold change vs veh, TMEM33 / RFU, WDR75 / Fold change vs veh, WDR75 / RFU, AHCTF1 / Fold change vs veh, AHCTF1 / RFU, TFRC / Fold change vs veh, TFRC / RFU, ZDHHC17 / Fold change vs veh, ZDHHC17 / RFU, NOM1 / Fold change vs veh, NOM1 / RFU, ARL8B / Fold change vs veh, ARL8B / RFU, ZBTB11 / Fold change vs veh, ZBTB11 / RFU, TAMM41 / Fold change vs veh, TAMM41 / RFU, KIAA1704 /// LOC100996395 / Fold change vs veh, KIAA1704 /// LOC100996395 / RFU, ING1 / Fold change vs veh, ING1 / RFU, TRMT61B / Fold change vs veh, TRMT61B / RFU, FUBP3 / Fold change vs veh, FUBP3 / RFU, TP53 / Fold change vs veh, TP53 / RFU, TNKS2 / Fold change vs veh, TNKS2 / RFU, ZFP14 / Fold change vs veh, ZFP14 / RFU, ACTR2 / Fold change vs veh, ACTR2 / RFU, PPP3R1 / Fold change vs veh, PPP3R1 / RFU, PIK3R1 / Fold change vs veh, PIK3R1 / RFU, HNRNPA1 / Fold change vs veh, HNRNPA1 / RFU, RNF170 / Fold change vs veh, RNF170 / RFU, ZNF28 / Fold change vs veh, ZNF28 / RFU, RNGTT / Fold change vs veh, RNGTT / RFU, OGT / Fold change vs veh, OGT / RFU, BRD1 / Fold change vs veh, BRD1 / RFU, MARS / Fold change vs veh, MARS / RFU, ZNF655 / Fold change vs veh, ZNF655 / RFU, FAHD1 / Fold change vs veh, FAHD1 / RFU, BDP1 / Fold change vs veh, BDP1 / RFU, LRRCC1 / Fold change vs veh, LRRCC1 / RFU, ARID1A / Fold change vs veh, ARID1A / RFU, ZNF146 / Fold change vs veh, ZNF146 / RFU, ZNF330 / Fold change vs veh, ZNF330 / RFU, GPN3 / Fold change vs veh, GPN3 / RFU, C9orf123 / Fold change vs veh, C9orf123 / RFU, N4BP2L2 / Fold change vs veh, N4BP2L2 / RFU, ARFIP1 / Fold change vs veh, ARFIP1 / RFU, FAM179B / Fold change vs veh, FAM179B / RFU, BCL10 / Fold change vs veh, BCL10 / RFU, UHRF1BP1L / Fold change vs veh, UHRF1BP1L / RFU, BET1 / Fold change vs veh, BET1 / RFU, CNOT2 / Fold change vs veh, CNOT2 / RFU, ZNF268 / Fold change vs veh, ZNF268 / Fold change vs veh, ZNF507 / RFU, DGCR2 / Fold change vs veh, DGCR2 / RFU, WDSUB1 / Fold change vs veh, WDSUB1 / Fold change vs veh, HSP90B1 /// MIR3652 / RFU, ADSS / Fold change vs veh, ADSS / RFU, GK / Fold change vs veh, GK / RFU, ZNF148 / Fold change vs veh, ZNF148 / RFU, TAF9 / Fold change vs veh, TAF9 / RFU, SLC1A5 / Fold change vs veh, SLC1A5 / RFU, SLMO2 / Fold change vs veh, SLMO2 / RFU, ABCC4 / Fold change vs veh, ABCC4 / RFU, LOC101060439 /// RAP1B / Fold change vs veh, LOC101060439 /// RAP1B / RFU, RFX7 / Fold change vs veh, RFX7 / RFU, GTPBP10 / Fold change vs veh, GTPBP10 / RFU, CNEP1R1 / Fold change vs veh, CNEP1R1 / RFU, BIVM-ERCC5 /// ERCC5 / Fold change vs veh, BIVM-ERCC5 /// ERCC5 / RFU, ILF3 / Fold change vs veh, ILF3 / RFU 11762660_at / Fold change /veh 11762660_at / RFU VCAN (11757783_s_at) / Fold change /veh VCAN (11757783_s_at) / RFU DDX43 (11728927_at) / Fold change /veh DDX43 (11728927_at) / RFU KRT8 (11758188_x_at) / Fold change /veh KRT8 (11758188_x_at) / RFU NKD1 (11759106_at) / Fold change /veh NKD1 (11759106_at) / RFU SRD5A1 (11742802_a_at) / Fold change /veh SRD5A1 (11742802_a_at) / RFU TPSAB1 /// TPSB2 (11721975_s_at) / Fold change /veh TPSAB1 /// TPSB2 (11721975_s_at) / RFU GSTM3 (11746129_a_at) / Fold change /veh GSTM3 (11746129_a_at) / RFU IL23R (11737362_x_at) / Fold change /veh IL23R (11737362_x_at) / RFU TMEM51 (11727254_a_at) / Fold change /veh TMEM51 (11727254_a_at) / RFU PIWIL2 (11732686_x_at) / Fold change /veh PIWIL2 (11732686_x_at) / RFU ORM1 (11744905_x_at) / Fold change /veh ORM1 (11744905_x_at) / RFU CCDC152 (11743942_at) / Fold change /veh CCDC152 (11743942_at) / RFU ECM1 (11717891_a_at) / Fold change /veh ECM1 (11717891_a_at) / RFU IL23R (11748794_a_at) / Fold change /veh IL23R (11748794_a_at) / RFU TNFAIP8L3 (11732012_x_at) / Fold change /veh TNFAIP8L3 (11732012_x_at) / RFU MBOAT4 (11741988_at) / Fold change /veh MBOAT4 (11741988_at) / RFU 11764193_at / Fold change /veh 11764193_at / RFU TMEM53 (11763286_at) / Fold change /veh TMEM53 (11763286_at) / RFU MAGEB2 (11727129_at) / Fold change /veh MAGEB2 (11727129_at) / RFU TMEM200A (11744735_a_at) / Fold change /veh TMEM200A (11744735_a_at) / RFU CCDC152 (11751479_a_at) / Fold change /veh CCDC152 (11751479_a_at) / RFU FAM211A (11726209_a_at) / Fold change /veh FAM211A (11726209_a_at) / RFU RGS16 (11746705_a_at) / Fold change /veh RGS16 (11746705_a_at) / RFU VCAN (11755009_s_at) / Fold change /veh VCAN (11755009_s_at) / RFU RHOB (11743442_s_at) / Fold change /veh RHOB (11743442_s_at) / RFU RGS16 (11720943_a_at) / Fold change /veh RGS16 (11720943_a_at) / RFU RGS16 (11720944_at) / Fold change /veh RGS16 (11720944_at) / RFU, VPS4B / Fold change vs veh, VPS4B / RFU, CREB1 / Fold change vs veh, CREB1 / RFU, DNAJC13 / Fold change vs veh, DNAJC13 / RFU, GNAQ / Fold change vs veh, GNAQ / RFU, CDK5R1 / Fold change vs veh, CDK5R1 / RFU, ZRANB3 / Fold change vs veh, ZRANB3 / RFU, CUL4A / Fold change vs veh, CUL4A / RFU, CCNY / Fold change vs veh, CCNY / RFU, UFL1 / Fold change vs veh, UFL1 / RFU, COG3 / Fold change vs veh, COG3 / RFU, DIAPH2 / Fold change vs veh, DIAPH2 / RFU, SKA2 / Fold change vs veh, SKA2 / RFU, AFF3 / Fold change vs veh, AFF3 / RFU, LMF1 / Fold change vs veh, LMF1 / RFU, IPO11 / Fold change vs veh, IPO11 / RFU, DFFB / Fold change vs veh, DFFB / RFU, FOXP1 / Fold change vs veh, FOXP1 / RFU, CARD8 / Fold change vs veh, CARD8 / RFU, STRN3 / Fold change vs veh, STRN3 / RFU, ADK / Fold change vs veh, ADK / RFU, RASSF2 / Fold change vs veh, RASSF2 / RFU, WIPF1 / Fold change vs veh, WIPF1 / RFU, LARP1B / Fold change vs veh, LARP1B / RFU, RASA1 / Fold change vs veh, RASA1 / RFU, RB1 / Fold change vs veh, RB1 / RFU, PPFIA1 / Fold change vs veh, PPFIA1 / RFU, MAT2A / Fold change vs veh, MAT2A / RFU, CCT5 / Fold change vs veh, CCT5 / RFU, WDR92 / Fold change vs veh, WDR92 / RFU, CUX1 / Fold change vs veh, CUX1 / RFU, TTC7A / Fold change vs veh, TTC7A / RFU, TMEM135 / Fold change vs veh, TMEM135 / RFU, DEPTOR / Fold change vs veh, DEPTOR / RFU, CPM / Fold change vs veh, CPM / RFU, DNAJB6 / Fold change vs veh, DNAJB6 / RFU, CACNA2D3 / Fold change vs veh, CACNA2D3 / RFU, DTX4 / Fold change vs veh, DTX4 / RFU, TFCP2 / Fold change vs veh, TFCP2 / RFU, GMCL1 /// GMCL1P1 / Fold change vs veh, GMCL1 /// GMCL1P1 / RFU, AEBP2 / Fold change vs veh, AEBP2 / RFU, SNHG1 /// SNORD22 /// SNORD25 /// SNORD26 /// SNORD27 /// SNORD28 /// SNORD29 /// SNORD31 / Fold change vs veh, SNHG1 /// SNORD22 /// SNORD25 /// SNORD26 /// SNORD27 /// SNORD28 /// SNORD29 /// SNORD31 / Fold change (Aza/veh), C12orf56 (ProbeSet 11735607_a_at) / Fold change (ACY-1035/veh), C12orf56 (ProbeSet 11735607_a_at) / Fold change (Aza/veh), FGFR1OP (ProbeSet 11751329_s_at) / Fold change (ACY-1035/veh), FGFR1OP (ProbeSet 11751329_s_at) / Fold change (Aza/veh), VPS36 (ProbeSet 11739960_a_at) / Fold change (ACY-1035/veh), VPS36 (ProbeSet 11739960_a_at) / RFU SYPL1 (11715823_x_at) / Fold change /veh SYPL1 (11715823_x_at) / RFU IGFBP7 (11715501_s_at) / Fold change /veh IGFBP7 (11715501_s_at) / RFU REEP3 (11722064_at) / Fold change /veh REEP3 (11722064_at) / RFU IGLL1 (11728026_x_at) / Fold change /veh IGLL1 (11728026_x_at): dose or concentration left out as unconfirmed
Settings: MV-4-11 cells, 48 hours

## Nc1ncn([C@@H]2O[C@H](CO)[C@@H](O)[C@H]2O)c(=O)n1 [azacitidine]
  Fold change /veh TMPRSS4 (11748680_a_at): 0.94
